{"source": "patent US12605480B2", "about": "“Tough gel-based drug delivery compositions and methods thereof” (priority 2019, dated 2026)", "key": {"[1]": {"details": "cited from earlier work"}, "[2]": {"details": "rat, in vivo; cited from earlier work"}, "[3]": {"test": "Solubility of CORT in water and other solutions", "assay_type": "physicochemical", "protocol": "The solubility of CORT in various water and other solutions were evaluated over a period of 24 h."}}, "data": [{"compound": "CC1(C)O[C@@H]2C[C@H]3[C@@H]4CCC5=CC(=O)C=C[C@]5(C)[C@@]4(F)[C@@H](O)C[C@]3(C)[C@]2(C(=O)CO)O1", "note": "[Triamcinolone acetonide]", "values": [{"measurement": "water solubility", "setting": "[1]", "result": 20, "unit": "µg/mL"}, {"measurement": "acute toxicity (oral LD50)", "setting": "[2]", "result": 1451, "unit": "mg/kg"}, {"measurement": "solubility at 24 h", "setting": "[3]; DMSO:ddH2O 1:4, aqueous with cosolvent or surfactant or cyclodextrin, DMSO:ddH2O ratio of 1:4", "result": "~1000", "unit": "µg/mL"}, {"measurement": "solubility at 24 h", "setting": "[3]; ddH2O and water-based solutions of 2% alginate and 12% acrylamide, 24 h", "result": "10 to 100", "unit": "µg/mL"}, {"measurement": "solubility", "setting": "[3]; water 37° C., input of the FE model, read-out: maximum solubility sol(water 37° C.) / Csol", "result": 33, "unit": "µg/mL"}]}]}
